Results as given in patent US20160038519A1, “ADMINISTRATION OF KARENITECIN FOR THE TREATMENT OF ADVANCED OVARIAN CANCER, INCLUDING CHEMOTHERAPY-RESISTANT AND/OR THE MUCINOUS ADENOCARCINOMA SUB-TYPES” (BioNumerik Pharmaceuticals, Inc., priority 2014, published 2016).
In brackets after ≈: the same amount, converted by molar mass. Where two headings read alike, the source gives them in different places.

Tests used:
JHOM2B Cell Line = assay: SRB cytotoxicity assay, JHOM2B; type: cell-based, human; settings: Homo sapiens
Protocol: (§1) In vitro studies were conducted in human mucinous ovarian cancer cell lines including JHOM2B, OMC3, and COV644. In one series of experiments, the dose response curves for BNP1350 (also known as Karenitecin), SN-38 (Irinotecan), and Topotecan were obtained and IC50 values were determined. In a second series of experiments, the effect of BNP7787 (2,2′-dithio-bis-ethane sulfonate; Tavocept) on BNP1350-induced cytotoxicity at selected BNP1350 concentrations was examined.
(§2) The JHOM2B and OMC3 cell lines were purchased from Riken Cell Bank (Japan). The COV644 cell line was purchased from SigmaAldrich. Cells were maintained as monolayered cultures in T-75 flasks and then seeded to microtiter plate wells for experiments. Population doubling-times for these three cell lines were long (i.e., exceeding 40 hours, and for some of the cell lines approaching 96 hours); therefore, the Applicants conducted initial pilot experiments and determined optimal seeding density to obtain A570 values in untreated controls that would fall within the linear range of the SRB assay after seven (7) total days of cell growth. JHOM2B cells were cultured in DMEM:F12 (1:1)+0.1 mM non-essential amino acids (NEAA)+10% FBS and were seeded at 6,000 cells per well. OMC3 cells were cultured in HamF12+10% FBS and were seeded at 8,000 cells per well. COV644 cells were cultured in DMEM+2 mM glutamine+10% FBS and were seeded at 6,000 cells per well.
(§3) The cells were manipulated in a Microzone laminar flow hood traditionally used for maintaining aseptic environments around automated instrumentation such as microplate robots, and the like. Cells were grown and maintained at 37° C. in a humidified atmosphere containing 5% CO2 in a water jacketed cell culture incubator (Forma Scientific). Cells were counted using a ViCell counter (Beckman-Coulter). An automated plate washer/stacker (ELx405/BioStak from BioTek Instruments) and a microplate reader (SpectraMax Plus from Molecular Devices) were used for conducting the SRB assay and determining A570 values for wells in the plates and the percentage of control values. Prior to SRB assays, cell viability was monitored by evaluation of microtiter plate wells. Dead cells detach and float while living cells remain attached to the bottom of the cell well.
(§4) SN-38 (Irinotecan; Sigma H0165, lot MKBQ4981) and Topotecan (Sigma T2705, lot 052M4728V) were purchased from SigmaAldrich. BNP1350 (lot KN-C192-135) and BNP7787 (lot 205001) were synthesized at BioNumerik Pharmaceuticals, Inc. (San Antonio, Tex.). BNP1350, SN38, and Topotecan were prepared as 2.5, 2.5, and 25 mM stocks in DMSO (ATCC, cell culture grade).
(§5) The sulforhodamine B (SRB) cytotoxicity assay was used to assess cell survival. Briefly, after the medium was decanted from individual plate wells, trichloroacetic acid (100 μL of 10.0 percent solution) was added to each well, and the plates were incubated at 4° C. for 1 hour. The plates were washed five times with water using an automated microplate washer (Model ELx405, Bio-Tek Instruments), SRB solution (100 μL of 0.4% SRB dissolved in 1.0 percent acetic acid) was added, and plates remained at room temperature for 15 minutes. The plates were then washed five times using acetic acid (1.0 percent), air dried, and bound dye was solubilized in Tris base (150 μL, 10 mM). Plates were agitated (gently) for 5 minutes and the absorbance values of the SRB dye-protein adduct at 570 nanometers (A570) were determined using an automated microtiter plate reader (SpectraMax Plus, Molecular Devices). IC50 values were extrapolated from dose response curves of the data using OriginLab Software.

OMC3 Cell Line = assay: SRB cytotoxicity assay, OMC3; type: cell-based, human; settings: Homo sapiens
Protocol: as §1, §2, §3, §4, §5

COV644 Cell Line = assay: SRB cytotoxicity assay, COV644; type: cell-based, human
Protocol: as §1, §2, §3, §4, §5
(§6) The 1050 values exceeded the solubility in medium for each compound—the limit of solubility in cell culture medium for the compounds were as follows: 2 micromolar for BNP1350 and SN38, and 20 micromolar for Topotecan. Cells were treated for periods of 2.5 hours or 6 hours and, in each case, the […] values were not reached. Longer treatments were not performed.

[1] = Limit of solubility in cell culture medium; type: physicochemical; settings: aqueous buffer
Protocol: as §6

[2] = system: stage III/IV advanced epithelial ovarian cancer resistant or refractory to platinum- and taxane-based regimens
Protocol: Such Phase III clinical trial is sometimes referred to herein as the “Karenitecin Phase III Trial”.
The Primary Endpoint of the disclosed Karenitecin Phase III Trial was Progression Free Survival (“PFS”); which was defined as the time period from the date of randomization to the date of first radiographically-documented Progressive Disease (“PD”) or date of death due to any cause, taking the event date that occurs first. The date of PD was determined by radiographical objective disease (RECIST) measurement. The Secondary Endpoints of the disclosed Karenitecin Phase III Trial included: (i) Overall Survival (hereinafter “OS”), defined as the time from the date of randomization to the date of death due to any cause; (ii) Incidence of anemia, defined as the proportion of subjects who experience ≧grade 3 anemia based on National Cancer Institute Common Terminology Criteria for Adverse Events (NCI-CTCAE) criteria at any time post-baseline after receiving study treatment; (iii) Incidence of neutropenia (including febrile neutropenia), defined as the proportion of subjects who experience ≧grade 3 neutropenia based on NCI-CTCAE criteria at any time post-baseline after receiving study treatment; and (iv) Incidence of thrombocytopenia, defined as the proportion of subjects who experience ≧grade 3 thrombocytopenia based on NCI-CTCAE criteria at any time post-baseline after receiving study treatment.
Approximately 80 study centers participated in this clinical study. The primary endpoint was Progression Free Survival (PFS); defined as the time period from the date of randomization to the date of first radiographically documented progressive disease or disease progression (“PD”) or date of death due to any cause, taking the event date that occurs first.
The primary endpoint was Progression Free Survival (PFS); defined as the time period from the date of randomization to the date of first radiographically documented progressive disease (PD) or date of death due to any cause, taking the event date that occurs first. The date of PD was determined by radiographically objective disease (RECIST) measurement.
• Overall Survival (OS), defined as the time from the date of randomization to the date of death due to any cause. • Incidence of anemia, defined as the proportion of subjects who experience ≧grade 3 anemia based on National Cancer Institute Common Terminology Criteria for Adverse Events (NCI-CTCAE) criteria at any time post-baseline after receiving study treatment. • Incidence of neutropenia (including febrile neutropenia), defined as the proportion of subjects who experience ≧grade 3 neutropenia based on NCI-CTCAE criteria at any time post-baseline after receiving study treatment. • Incidence of thrombocytopenia, defined as the proportion of subjects who experience ≧grade 3 thrombocytopenia based on NCI-CTCAE criteria at any time post-baseline after receiving study treatment.
During this period, subjects received either Karenitecin (1.0 mg/m^2/day administered as a 60-minute intravenous infusion) or Topotecan (1.5 mg/m^2/day administered as a 30-minute intravenous infusion) daily for 5 consecutive days, every 21 days (one treatment cycle=21 days).

MDR-expressing sublines = settings: cited from earlier work; for Resistance of MDR-expressing sublines relative to parental wild-type cells: comparison studies; for Change in sensitivity typically described for classic MDR substrates: same experiments
[3] = system: resistant subline containing less than 4% of the topoisomerase I activity; settings: subline with less than 4% of topoisomerase I activity; cited from earlier work
[4] = system: platinum-refractory epithelial ovarian cancer; settings: cited from earlier work
[5] = 2 hour drug exposure, average of Test 1 and Test 2, read-out: IC50, Average
[6] = 2 hour drug exposure, read-out: IC50, Test 1 (2 replicate plates)
[7] = 2 hour drug exposure, read-out: IC50, Test 2 (3 replicate plates)
[8] = Mucinous adenocarcinoma subtype

SMILES: CC[C@@]1(O)C(=O)OCc2c1cc1n(c2=O)Cc2cc3c(CN(C)C)c(O)ccc3nc2-1 [Topotecan]
- IC50 (JHOM2B Cell Line; [5]): 5.17 µM
- IC50 (JHOM2B Cell Line; [6]): 4.75 ± 0.25 µM
- IC50 (JHOM2B Cell Line; [7]): 5.59 ± 0.28 µM
- IC50 (JHOM2B Cell Line; read-out: IC50 values): 5.17 µM
- IC50 (OMC3 Cell Line; [5]): 3.94 µM
- IC50 (OMC3 Cell Line; [6]): 3.12 ± 0.18 µM
- IC50 (OMC3 Cell Line; [7]): 4.76 ± 0.25 µM
- IC50 (OMC3 Cell Line; read-out: IC50 values): 3.94 µM
- IC50 (COV644 Cell Line; Homo sapiens, 2, 5, and 6 hour drug exposures, did not reach 50% of Control, read-out: IC50, Test 1 (2 replicate plates)): > 20 µM
- IC50 (COV644 Cell Line; Homo sapiens, 2, 5, and 6 hour drug exposures, did not reach 50% of Control, read-out: IC50, Test 2 (2 to 3 replicate plates)): > 20 µM
- IC50 (COV644 Cell Line; Homo sapiens, 2, 5, and 6 hour drug exposures, read-out: IC50, Average): > 20 µM
- IC50 (COV644 Cell Line; Homo sapiens, read-out: IC50 values): > 20 µM
- solubility [1]: 20 µM (≈ 8.43 µg/mL)
- Median PFS [2, 8]: 9.1 weeks
- Overall survival (OS), third quartile [2, 8]: 19.4 months
- Median PFS ([2]; overall trial population, IRC-determined): 17.8 weeks
- Median PFS ([2]; refractory or resistant and/or mucinous subpopulation): 18.7 weeks
- Resistance of MDR-expressing sublines relative to parental wild-type cells (MDR-expressing sublines): nine-fold more resistant

SMILES: CC[C@@]1(O)C(=O)OCc2c1cc1n(c2=O)Cc2cc3ccccc3nc2-1 [camptothecin]
- Resistance of MDR-expressing sublines relative to parental wild-type cells (MDR-expressing sublines): No increase in resistance
- Decrease in sensitivity of resistant subline compared with wild-type parental cells [3]: 1000 fold

SMILES: N.N.O=C([O-])C1(C(=O)[O-])CCC1.[Pt+2] [carboplatin]
- Stable disease ([4]; 6 subjects): 18%
- Response rate, subgroup with platinum-free interval of 12 months ([4]; 26 subjects (7/26)): 27%
- Overall response rate to platinum reinduction ([4]; 33 subjects, single-agent carboplatin after taxane failure): 21%
- Median duration of response ([4]; in vivo): ≥ 7 months

SMILES: COc1cccc2c1C(=O)c1c(O)c3c(c(O)c1C2=O)C[C@@](O)(C(=O)CO)C[C@@H]3O[C@H]1C[C@H](N)[C@H](O)[C@H](C)O1 [doxorubicin]
- Change in sensitivity typically described for classic MDR substrates (MDR-expressing sublines): 200 fold

SMILES: COc1cc([C@@H]2c3cc4c(cc3[C@@H](O[C@@H]3O[C@@H]5CO[C@@H](C)O[C@H]5[C@H](O)[C@H]3O)[C@H]3COC(=O)[C@H]23)OCO4)cc(OC)c1O [etoposide]
- Change in sensitivity typically described for classic MDR substrates (MDR-expressing sublines): 200 fold
